According to ChEMBL document CHEMBL1139034, “Synthesis and antihyperglycemic evaluation of various protoberberine derivatives” (2006):
Activity calls are given as the source filed them. No cut-off for these calls is given here.

Experiments:
Escherichia coli [1] = experiment: Antibacterial activity against Escherichia coli upto 50 ug/mL; type: functional, organism-based
[2] = molecular target: Sulfonylurea receptor 1, Kir6.2 (Homo sapiens) (UniProt Q14654+Q09428); experiment: Binding affinity to sulfonylurea receptor in pancreatic islet beta cell membranes
[3] = Reduction of blood glucose level in alloxan induced diabetic mice at 200 mg/kg; type: functional, organism-based; parameters: dose 200 mg/kg; details: Mus musculus, target entry is the homologue from another species
Escherichia coli [4] = experiment: Antibacterial activity against Escherichia coli; type: functional

Row | SMILES | Activity (Escherichia coli [1]) | Activity [2] | Activity [3] [mg/dL] | MIC (Escherichia coli [4]) [µg/mL]
1 | COc1ccc2cc3[n+](cc2c1OC)CCc1cc(OC(C)=O)c(OC(C)=O)cc1-3 | inactive | inactive | – | –
2 | COc1ccc2cc3[n+](cc2c1OC)CCc1cc2c(cc1-3)OCO2.[Cl-] [BERBERINE CHLORIDE] | – | Active | 61 | 5
3 | COc1ccc2cc3[n+](cc2c1O)CCc1cc2c(cc1-3)OCO2 | inactive | Active | 12 | –
4 | COc1ccc2c(c1OC)C[N+]1([O-])CCc3cc4c(cc3C1C2)OCO4 (stereo unspecified) | inactive | Active | 23 | –
5 | c1ccc2c(c1)CC1c3cc4c(cc3CCN1C2)OCO4 (stereo unspecified) | inactive | inactive | – | –
6 | CC[N+]12CCc3cc4c(cc3C1Cc1ccc(OC)c(OC)c1C2)OCO4 (stereo unspecified) | inactive | inactive | – | –
7 | c1ccc2c[n+]3c(cc2c1)-c1cc2c(cc1CC3)OCO2 | inactive | Active | 67 | –
8 | COc1ccc2cc3[n+](cc2c1)CCc1cc2c(cc1-3)OCO2 | inactive | inactive | – | –
9 | c1ccc(COc2ccc3c[n+]4c(cc3c2)-c2cc3c(cc2CC4)OCO3)cc1 | inactive | inactive | – | –
10 | COc1cc2c(cc1OC)-c1cc3ccc(OC)c(OC)c3c[n+]1CC2 | inactive | inactive | – | –
11 | COc1ccc2cc3[n+](cc2c1OC)CCc1cc(O)c(O)cc1-3 | inactive | inactive | – | –
12 | COc1ccc2c(c1)C(=O)N(CCc1ccc(S(=O)(=O)NC(=O)NC3CCCCC3)cc1)C(=O)C2(C)C | – | Active | 162 | –
13 | COc1ccc2c(c1OC)CN1CCc3cc4c(cc3[C@@H]1C2)OCO4 | inactive | inactive | – | –
14 | COc1cccc2cc3[n+](cc12)CCc1cc2c(cc1-3)OCO2 | inactive | inactive | – | –
15 | COc1ccc2c(c1OC)C[N+]1(Cc3ccccc3)CCc3cc4c(cc3C1C2)OCO4 (stereo unspecified) | inactive | Active | 146 | –
16 | COc1ccc2c(c1OC)C[N+]1(C)CCc3cc4c(cc3C1C2)OCO4 (stereo unspecified) | inactive | inactive | – | –
17 | COc1ccc2c[n+]3c(cc2c1)-c1cc2c(cc1CC3)OCO2 | inactive | inactive | – | –
18 | c1ccc(C[N+]23CCc4cc5c(cc4C2Cc2ccccc2C3)OCO5)cc1 (stereo unspecified) | inactive | Active | – | –
